Data reported in patent US20080167347A1, “Ctgf Expression Inhibitor” (SHIONGI & CO., LTD., priority 2005, published 2008).

Tested on: human CTGF promoter region containing TGF-β responsive element
Assay: Luciferase assay of CTGF promoter activity in Ms0-2-3 cells stimulated with TGF-β
Type: cell-based
Conditions: Mesangial cell; Ms0-2-3 rat mesangial cells, TGF-β 2 ng/ml stimulation, luciferase activity after 24 hours; read-out: IC50 (inhibitory rate against CTGF promoter activity)
Experimental: Several kidneys of 6 to 8-week-old male Wistar rats were perfused with sterilized phosphate buffered saline (PBS) and excised. Glomeruli were isolated from the cortex by a sieving method (with 180, 125 or 63 μm mesh). Isolated glomeruli were cultured in RPMI1640 medium containing 20% bovine serum, 1% penicillin-streptomycin and 1% Hepes buffer at 37° C. under 5% carbon dioxide (CO2) atmosphere. After 3 weeks, the medium was changed to the new one. After 4 weeks, mesangial cells which proliferated and became confluent were diluted 2 to 5 times and subcultured. Subcultures were repeated over 20 times, and mesangial cells cultured in usual RPMI1640 medium containing 10% bovine serum, 1% penicillin-streptomycin and 1% Hepes buffer were cloned by a limiting dilution method to establish cell line Ms0-2. […]
Luciferase assay was performed with Ms0-2-3 cells which were cultured with serum-free medium for 48 hours. […] Substrate was added thereto and luciferase activity of each well was measured by luminometer. Enhancement of luciferase activity by TGF-β stimulation (without a compound) was determined as 100% and the inhibitory rate of activity by addition of the compound was calculated. The value obtained from the inhibitory curve was judged as the inhibitory rate against CTGF promoter activity and determined as IC50 value. […]

O=C(Nc1cccc(C(F)(F)F)c1)c1cc(-c2ccc(OC(F)(F)F)cc2)ccc1O [Compound 43]
IC50: 102 nM
